# Measurements reported in paper PMC12207370, “Macrocyclic Peptide Probes for Immunomodulatory Protein CD59: Potent Modulators of Bacterial Toxin Activity and Antibody‐Dependent Cytotoxicity” (Angewandte Chemie (International Ed. in English), 2025).
# Numbered stars: 1 amine (or outer) side, 2 acyl side, 3 side chain; on linkers, the order of the positions; unused ones are H or OH. Bridge positions count the residues as written; N and C are the ends. Square brackets hold non-standard residues; d marks the D form. Peptide text beside a SMILES is read from it. I, II: the chains in the order shown. CO(CH2CH2O)5CH2CH2CO = O=C(CCOCCOCCOCCOCCOCCC(=O)[*:2])[*:1]
# Test system: SK-BR-3 cells
# Assay: ILY lysis assay (Sytox green, IncuCyte) in SK-BR-3 cells
# Assay type: cell-based, human
# Procedure: Figure 5 CP‐06 and optimized analogues control CD59 activity in cellular assays. a) ILY lysis assay. SK‐BR‐3 cells were treated with CP‐06 (n = 4) or CP‐06[W3A] (n = 2), then with Sytox green dye and ILY ([…]). The plate was imaged immediately with the IncuCyte S3 Live Cell Analysis System and then every hour up to 14 h. The linear phase of lysis was taken from each well, and linear regression was performed to extract individual slope values, which were then normalized to maximum lysis rate (Sytox and ILY) vs. 0% lysis (Sytox only) within each plate. […] Human erythrocytes were sensitized with 1% w/v anti‐human erythrocyte Ab with 5% v/v human serum in the presence of a serial dilution of CP‐06C18 (black bars) or CP‐06scrmb‐C18 (red bars) Percent lysis enhancement was calculated by normalization to 0% enhancement (buffer well) and plotted as the mean of three biological replicates ± SEM.
# Determination of optimal ILY concentration: 20,000 SK-BR-3 cells were seeded in a 96-well plate (Grenier, 655180) 24 h before treatment. […] Any bubbles were removed by a de-bubbler and the plate was immediately transferred to IncuCyte® S3 Live Cell Analysis System where each well was imaged 4 times at 10 × magnification with phase contrast and green fluorescence (λex 440–480 nm, λem = 504–544 nm) every hour for 24 h. […]
smiles,measurement,value
"CC(C)[C@@H]1NC(=O)[C@H](CO)NC(=O)[C@H](CO)NC(=O)[C@H](CCCNC(=N)N)NC(=O)[C@H](CC(N)=O)NC(=O)CNC(=O)[C@H](Cc2c[nH]c3ccccc23)NC(=O)[C@H]([C@@H](C)O)NC(=O)[C@H](Cc2c[nH]c3ccccc23)NC(=O)[C@H](CO)NC(=O)[C@@H](Cc2ccc(O)cc2)NC(=O)CSC[C@@H](C(=O)NCC(=O)N[C@@H](CCCCNC(=O)CCOCCOCCOCCOCCOCCC(=O)NCCCC[C@H](NC(=O)CNC(=O)[C@@H]2CSCC(=O)N[C@H](Cc3ccc(O)cc3)C(=O)N[C@@H](CO)C(=O)N[C@@H](Cc3c[nH]c4ccccc34)C(=O)N[C@@H]([C@@H](C)O)C(=O)N[C@@H](Cc3c[nH]c4ccccc34)C(=O)NCC(=O)N[C@@H](CC(N)=O)C(=O)N[C@@H](CCCNC(=N)N)C(=O)N[C@@H](CO)C(=O)N[C@@H](CO)C(=O)N[C@@H](C(C)C)C(=O)N[C@@H](CCCNC(=N)N)C(=O)NCC(=O)N2)C(=O)NCC(N)=O)C(=O)NCC(N)=O)NC(=O)CNC(=O)[C@H](CCCNC(=N)N)NC1=O [CP-06dimer] (I: {CH2CO}-[dY]SWTWGNRSSVRGCGKG-NH2 / II: {CH2CO}-[dY]SWTWGNRSSVRGCGKG-NH2; linker I:16-II:16 via CO(CH2CH2O)5CH2CH2CO; thioether I:N-I:14, II:N-II:14)",inhibition of ILY lysis (in words),completely inhibits ILY lysis
